Source: patent publication US20240270762A1, “PENICILLIN-BINDING PROTEIN INHIBITORS” (priority 2021, published 2024)
Converted amounts (≈) assume the structure as drawn. Read-outs that look alike come from different tables or passages of the source.

Key:
A. baumannii CDC-0045 = test: microbe, parasite or virus in culture; format: cell-based; conditions: Acinetobacter baumannii
P. aeruginosa CDC-0090 = test: microbe, parasite or virus in culture; format: cell-based; conditions: Pseudomonas aeruginosa, CDC0090, read-out: Minimum inhibitory concentration, P. aeruginosa CDC-0090
P. aeruginosa CDC-0054 = test: microbe, parasite or virus in culture; format: cell-based; conditions: Pseudomonas aeruginosa, CDC0054, read-out: Minimum inhibitory concentration, P. aeruginosa CDC-0054
[1] = tested on: B. humptydooensis ATCC BAA-2767; test: microbe, parasite or virus in culture; format: cell-based; conditions: Burkholderia humptydooensis, ATCCBAA2767, read-out: Minimum inhibitory concentration (MIC), B. humptydooensis ATCC BAA-2767
A. baumannii PBP1a = molecular target: T1, A. baumannii PBP1a (Acinetobacter baumannii, UniProt A0ABX6CK30); test: Bocillin-FL competition binding via gel filtration, A. baumannii PBP1a; conditions: competition binding assay using Bocillin-FL via gel filtration; read-out: A. baumannii PBP1a Potency
T1 sequence (A0ABX6CK30 1-851): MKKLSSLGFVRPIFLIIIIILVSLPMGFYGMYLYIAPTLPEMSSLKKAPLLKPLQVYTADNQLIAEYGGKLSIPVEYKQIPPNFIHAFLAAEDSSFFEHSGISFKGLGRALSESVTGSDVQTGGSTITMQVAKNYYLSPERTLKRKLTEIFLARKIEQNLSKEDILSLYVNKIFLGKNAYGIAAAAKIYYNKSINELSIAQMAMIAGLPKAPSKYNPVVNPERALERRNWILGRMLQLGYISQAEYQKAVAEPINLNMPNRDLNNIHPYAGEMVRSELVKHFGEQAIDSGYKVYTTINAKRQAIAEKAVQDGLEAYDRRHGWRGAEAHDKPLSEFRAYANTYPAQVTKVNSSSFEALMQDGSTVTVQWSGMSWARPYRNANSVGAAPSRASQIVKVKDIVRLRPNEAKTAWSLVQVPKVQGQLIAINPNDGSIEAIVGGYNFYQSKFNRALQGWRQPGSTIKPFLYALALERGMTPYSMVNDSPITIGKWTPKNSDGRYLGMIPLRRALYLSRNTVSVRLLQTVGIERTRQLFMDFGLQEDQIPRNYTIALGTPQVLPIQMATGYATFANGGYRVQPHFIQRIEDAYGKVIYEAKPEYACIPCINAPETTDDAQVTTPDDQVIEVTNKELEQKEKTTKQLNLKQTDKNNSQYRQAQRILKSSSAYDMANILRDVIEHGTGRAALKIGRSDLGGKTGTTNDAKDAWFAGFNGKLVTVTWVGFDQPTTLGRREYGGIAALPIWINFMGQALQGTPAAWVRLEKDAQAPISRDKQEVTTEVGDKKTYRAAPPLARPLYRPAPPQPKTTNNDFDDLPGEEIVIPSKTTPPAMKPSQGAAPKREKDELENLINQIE
Outline: (§1)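 Enzyme pre-incubated with increasing inhibitor concentrations, then Bocillin-FL added for 15 min further incubation. Bocillin-FL-bound PBP separated by gel filtration and fluorescence read. EC50 from fitting fraction PBP bound vs inhibitor concentration to a Hill-type equation (ymin, ymax, n).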

A. baumannii 1258916 = test: microbe, parasite or virus in culture; format: cell-based, Acinetobacter baumannii
A. baumannii PBP2 = A. baumannii PBP2 (Acinetobacter baumannii, UniProt D0C8Z9); test: Bocillin-FL competition binding via gel filtration, A. baumannii PBP2
A. baumannii PBP2, sequence (D0C8Z9 whole entry): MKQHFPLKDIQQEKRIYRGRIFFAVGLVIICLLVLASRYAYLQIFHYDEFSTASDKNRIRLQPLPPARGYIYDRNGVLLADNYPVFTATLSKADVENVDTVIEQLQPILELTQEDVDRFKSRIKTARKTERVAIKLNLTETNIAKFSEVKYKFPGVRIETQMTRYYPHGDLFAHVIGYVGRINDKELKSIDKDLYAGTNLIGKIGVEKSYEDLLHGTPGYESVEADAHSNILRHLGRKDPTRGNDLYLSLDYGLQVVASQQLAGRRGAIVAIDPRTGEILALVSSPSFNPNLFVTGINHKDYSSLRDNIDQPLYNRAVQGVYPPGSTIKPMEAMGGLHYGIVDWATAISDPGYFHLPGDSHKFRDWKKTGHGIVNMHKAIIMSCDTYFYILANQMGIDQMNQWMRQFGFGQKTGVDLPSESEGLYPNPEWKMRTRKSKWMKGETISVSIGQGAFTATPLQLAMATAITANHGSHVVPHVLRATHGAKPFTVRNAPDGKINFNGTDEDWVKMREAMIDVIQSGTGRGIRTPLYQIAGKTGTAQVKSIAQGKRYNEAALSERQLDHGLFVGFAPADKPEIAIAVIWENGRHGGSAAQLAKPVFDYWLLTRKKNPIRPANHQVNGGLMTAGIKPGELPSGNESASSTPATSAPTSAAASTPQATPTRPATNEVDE
Outline: as §1

P. aeruginosa ATCC 27853 = test: microbe, parasite or virus in culture; format: cell-based; conditions: Pseudomonas aeruginosa, ATCC27853, read-out: Minimum inhibitory concentration, P. aeruginosa ATCC 27853
[2] = tested on: P. aeruginosa (ΔmexAB-oprM); test: Broth microdilution MIC in iron-depleted CAMHB (IDM); format: cell-based; conditions: Pseudomonas aeruginosa; iron-depleted CAMHB (IDM); […]; read-out: Minimum inhibitory concentration, P. aeruginosa ΔmexAB-oprM
[3] = CDC0045, read-out: Minimum inhibitory concentration (MIC), A. baumannii CDC-0045
[4] = Acinetobacter baumannii, 1258916, read-out: Minimum inhibitory concentration (MIC), A. baumannii 1258916
[5] = CDC0045, read-out: MIC, A. baumannii CDC-0045
[6] = Acinetobacter baumannii, 1258916, read-out: MIC, A. baumannii 1258916

Compound | MIC (A. baumannii CDC-0045; [3]) [µg/mL] | MIC (P. aeruginosa CDC-0090) [µg/mL] | MIC (P. aeruginosa CDC-0054) [µg/mL] | MIC [1] [µg/mL] | EC50 (A. baumannii PBP1a) [µM] | MIC (A. baumannii 1258916; [4]) [µg/mL] | EC50 (A. baumannii PBP2) [µM] | MIC (P. aeruginosa ATCC 27853) [µg/mL] | MIC [2] [µg/mL] | MIC (A. baumannii CDC-0045; [5]) [µg/mL] | MIC (A. baumannii 1258916; [6]) [µg/mL]
O=C(O)c1c(F)ccc2c1OB(O)[C@@H](NC(=O)[C@H](NC(=O)N1CCN(C3CCN(C(=O)c4ccc(O)c(O)c4Cl)CC3)C1=O)c1ccc(P(=O)(O)O)cc1)C2 [Example 494, (R)-3-((R)-2-(3-(1-(2-chloro-3,4-dihydroxybenzoyl)piperidin-4-yl)-2-oxoimidazolidine-1-carboxamido)-2-(4-phosphonophenyl)acetamido)-7-fluoro-2-hydroxy-3,4-dihydro-2H-benzo[e][1,2]oxaborinine-8-carboxylic acid] | < 1 | < 1 | < 1 | < 1 | 50 to 250 | < 1 | 10 to 50 | < 1 | < 1 |  | 
O=C(O)c1c(F)ccc2c1OB(O)[C@@H](NC(=O)[C@H](NC(=O)N1CCN(C3CCN(C(=O)c4cc(O)c(F)c(O)c4F)CC3)C1=O)c1cc(F)c(O)c(O)c1Cl)C2 (single isomer, unassigned) [Example 444] |  | < 1 | < 1 | < 1 | < 10 |  | < 10 | < 1 | < 1 | < 1 | < 1
O=C(O)c1c(F)ccc2c1OB(O)[C@@H](NC(=O)[C@H](NC(=O)N1CCN(C3CCN(C(=O)c4cc(O)cc(F)c4)CC3)C1=O)c1cc(F)c(O)c(O)c1Cl)C2 (single isomer, unassigned) [Example 436] |  | < 1 | < 1 | < 1 | < 10 |  | < 10 | < 1 | < 1 | < 1 | < 1
O=C(O)c1c(F)ccc2c1OB(O)[C@@H](NC(=O)[C@H](NC(=O)N1CCN(C3CCN(C(=O)Nc4ccc(F)c(O)c4)CC3)C1=O)c1cc(F)c(O)c(O)c1Cl)C2 (single isomer, unassigned) [Example 449] |  | < 1 | < 1 | 2 to 4 (≈ 2.53 to 5.06 µM) | < 10 |  | < 10 | < 1 | < 1 | < 1 | < 1
O=C(NCCS(=O)(=O)N1CCN(C(=O)N[C@H](C(=O)N[C@H]2Cc3ccc(F)c(C(=O)O)c3OB2O)c2ccc(P(=O)(O)O)cc2)C1=O)c1ccc(O)c(O)c1Cl [Example 167, (R)-3-((S)-2-(3-((2-(2-chloro-3,4-dihydroxybenzamido)ethyl)sulfonyl)-2-oxoimidazolidine-1-carboxamido)-2-(4-phosphonophenyl)acetamido)-7-fluoro-2-hydroxy-3,4-dihydro-2H-benzo[e][1,2]oxaborinine-8-carboxylic acid] |  | > 128 | > 128 | > 128 | 50 to 250 |  | 10 to 50 | > 128 | > 128 | > 128 | > 128
O=C(O)c1c(F)ccc2c1OB(O)[C@@H](NC(=O)[C@H](NC(=O)N1CCN(C3CCN(C(=O)c4cc(O)ccc4F)CC3)C1=O)c1cc(F)c(O)c(O)c1Cl)C2 (single isomer, unassigned) [Example 433] |  | < 1 | < 1 | < 1 | < 10 |  | < 10 | < 1 | < 1 | < 1 | < 1
O=C(O)c1c(F)ccc2c1OB(O)[C@@H](NC(=O)C(NC(=O)N1CCN(C3CCN(C(=O)Nc4cc(O)ccc4F)CC3)C(=O)C1=O)c1cc(F)c(O)c(O)c1Cl)C2 (stereo partly drawn) [Example 479, (3R)-3-(2-(2-chloro-5-fluoro-3,4-dihydroxyphenyl)-2-(4-(1-((2-fluoro-5-hydroxyphenyl)carbamoyl)piperidin-4-yl)-2,3-dioxopiperazine-1-carboxamido)acetamido)-7-fluoro-2-hydroxy-3,4-dihydro-2H-benzo[e][1,2]oxaborinine-8-carboxylic acid] |  | 2 to 4 (≈ 2.44 to 4.88 µM) | < 1 | 2 to 4 (≈ 2.44 to 4.88 µM) | 10 to 50 |  | 10 to 50 | 2 to 4 (≈ 2.44 to 4.88 µM) | < 1 | < 1 | < 1
O=C(O)c1c(F)ccc2c1OB(O)[C@@H](NC(=O)[C@H](NC(=O)N1CCN(C3CCN(C(=O)Nc4cccc(O)c4Cl)CC3)C(=O)C1=O)c1cc(F)c(O)c(O)c1Cl)C2 [Example 482, (R)-3-((R)-2-(4-(1-((2-chloro-3-hydroxyphenyl)carbamoyl)piperidin-4-yl)-2,3-dioxopiperazine-1-carboxamido)-2-(2-chloro-5-fluoro-3,4-dihydroxyphenyl)acetamido)-7-fluoro-2-hydroxy-3,4-dihydro-2H-benzo[e][1,2]oxaborinine-8-carboxylic acid] |  | 2 to 4 (≈ 2.39 to 4.79 µM) | < 1 | 2 to 4 (≈ 2.39 to 4.79 µM) | 10 to 50 |  | 10 to 50 | 2 to 4 (≈ 2.39 to 4.79 µM) | < 1 | < 1 | < 1
O=C(O)c1c(F)ccc2c1OB(O)[C@@H](NC(=O)[C@H](NC(=O)N1CCN(C3CCN(C(=O)c4ccncc4)CC3)C1=O)c1cc(F)c(O)c(O)c1Cl)C2 [Example 461, (R)-3-((R)-2-(2-chloro-5-fluoro-3,4-dihydroxyphenyl)-2-(3-(1-isonicotinoylpiperidin-4-yl)-2-oxoimidazolidine-1-carboxamido)acetamido)-7-fluoro-2-hydroxy-3,4-dihydro-2H-benzo[e][1,2]oxaborinine-8-carboxylic acid] |  | < 1 | < 1 | < 1 | 10 to 50 |  | 10 to 50 | < 1 | < 1 | < 1 | < 1
O=C(O)c1c(F)ccc2c1OB(O)[C@@H](NC(=O)C(NC(=O)N1CCN(C3CCN(C(=O)Nc4cc(O)c(F)c(F)c4)CC3)C(=O)C1=O)c1cc(F)c(O)c(O)c1Cl)C2 (stereo partly drawn) [Example 488, (3R)-3-(2-(2-chloro-5-fluoro-3,4-dihydroxyphenyl)-2-(4-(1-((3,4-difluoro-5-hydroxyphenyl)carbamoyl)piperidin-4-yl)-2,3-dioxopiperazine-1-carboxamido)acetamido)-7-fluoro-2-hydroxy-3,4-dihydro-2H-benzo[e][1,2]oxaborinine-8-carboxylic acid] | < 1 | < 1 | < 1 | > 128 | < 10 | < 1 | 10 to 50 | 2 to 4 (≈ 2.39 to 4.78 µM) | < 1 |  | 
O=C(O)c1c(F)ccc2c1OB(O)[C@@H](NC(=O)[C@H](NC(=O)N1CCN(C3CCN(C(=O)c4ccc(F)c(O)c4F)CC3)C1=O)c1cc(F)c(O)c(O)c1Cl)C2 (single isomer, unassigned) [Example 437] |  | < 1 | < 1 | < 1 | < 10 |  | < 10 | < 1 | < 1 | < 1 | < 1
O=C(O)c1c(F)ccc2c1OB(O)[C@@H](NC(=O)[C@H](NC(=O)N1CCN(C3CCN(C(=O)Nc4cc(F)c(O)c(O)c4Cl)CC3)C1=O)c1ccc(P(=O)(O)O)cc1)C2 (single isomer, unassigned) [Example 500] | < 1 | 2 to 4 (≈ 2.39 to 4.78 µM) | < 1 | < 1 | < 10 | < 1 | < 10 | < 1 | < 1 |  | 
